# According to PMC12278908, “Genome integrity sensing by the broad-spectrum Hachiman antiphage defense complex” (Cell, 2024):
# Target: T1, HamAB (Escherichia coli, UniProt A0A426EXV0)
# T1 construct: gene DU321_04165; native locus coexpressed in E. coli BL21-AI; only HamA tagged 10xHis-MBP-TEV, TEV-treated; 1:1 heterodimer; with Hachiman antiphage defense system nuclease HamA (DUF1837 domain-containing protein)
# T1 sequence (A0A426EXV0 1-1174): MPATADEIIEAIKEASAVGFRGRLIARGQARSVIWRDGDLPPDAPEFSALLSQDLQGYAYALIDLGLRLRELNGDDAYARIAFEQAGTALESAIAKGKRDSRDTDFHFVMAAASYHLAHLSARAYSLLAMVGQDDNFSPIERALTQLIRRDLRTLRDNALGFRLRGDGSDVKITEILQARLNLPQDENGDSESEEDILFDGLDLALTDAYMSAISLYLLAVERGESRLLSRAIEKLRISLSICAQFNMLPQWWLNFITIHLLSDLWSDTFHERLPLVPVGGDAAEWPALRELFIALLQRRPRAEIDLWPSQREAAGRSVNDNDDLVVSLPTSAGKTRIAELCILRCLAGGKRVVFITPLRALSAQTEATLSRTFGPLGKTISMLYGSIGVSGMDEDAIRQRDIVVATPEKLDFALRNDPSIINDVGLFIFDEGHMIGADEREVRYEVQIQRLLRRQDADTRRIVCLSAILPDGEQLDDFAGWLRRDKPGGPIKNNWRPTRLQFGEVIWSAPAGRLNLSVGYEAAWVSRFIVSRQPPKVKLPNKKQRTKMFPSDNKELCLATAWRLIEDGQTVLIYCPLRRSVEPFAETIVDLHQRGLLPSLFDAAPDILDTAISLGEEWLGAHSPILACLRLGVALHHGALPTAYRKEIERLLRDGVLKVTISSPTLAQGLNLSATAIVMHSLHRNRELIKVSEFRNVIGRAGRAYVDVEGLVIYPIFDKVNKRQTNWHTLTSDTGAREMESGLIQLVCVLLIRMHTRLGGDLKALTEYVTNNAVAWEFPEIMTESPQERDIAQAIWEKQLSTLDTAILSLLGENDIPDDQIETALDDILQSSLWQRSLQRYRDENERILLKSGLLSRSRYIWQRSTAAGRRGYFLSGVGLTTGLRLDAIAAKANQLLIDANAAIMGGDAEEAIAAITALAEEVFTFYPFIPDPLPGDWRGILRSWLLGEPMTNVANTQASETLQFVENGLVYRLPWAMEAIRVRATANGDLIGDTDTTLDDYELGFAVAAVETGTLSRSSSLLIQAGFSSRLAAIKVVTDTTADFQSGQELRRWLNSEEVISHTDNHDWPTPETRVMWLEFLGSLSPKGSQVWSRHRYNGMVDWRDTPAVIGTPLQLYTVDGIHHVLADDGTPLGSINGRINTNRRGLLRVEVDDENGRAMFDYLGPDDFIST
# T1 sequence (Q6XGE5 1-259 partner): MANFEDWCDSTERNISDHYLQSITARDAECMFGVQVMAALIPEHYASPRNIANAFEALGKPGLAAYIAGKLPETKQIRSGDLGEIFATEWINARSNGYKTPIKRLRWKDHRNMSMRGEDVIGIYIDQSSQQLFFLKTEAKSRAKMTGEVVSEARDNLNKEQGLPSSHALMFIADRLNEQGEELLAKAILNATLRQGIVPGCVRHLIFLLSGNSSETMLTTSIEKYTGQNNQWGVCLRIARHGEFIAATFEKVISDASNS
# Assay: malachite green phosphate release ATPase assay
# Assay type: biochemical
# Conditions: with or without supercoiled plasmid DNA; 1 mM ATP, 2 mM MgSO4, pH 8.8, 37 °C
smiles,measurement,value
Nc1ncnc2c1ncn2[C@@H]1O[C@H](COP(=O)(O)OP(=O)(O)OP(=O)(O)O)[C@@H](O)[C@H]1O [ATP],malachite green phosphate release ATPase assay,"ATPase assays with HamB, HamAB, and HamA*B in the presence of plasmid DNA"
